Laboratory results taken from PubChem BioAssay (NCI).
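How tested: cells in 96-well plates exposed to compound for 48 hours at five concentrations. TGI marks complete inhibition of growth.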

Key:
Experiment in all cases: NCI tumour cell line growth inhibition, 48 h
SN12C renal = test system: SN12C renal
UO-31 renal = test system: UO-31 renal
HOP-62 NSCLC = test system: HOP-62 NSCLC
SNB-19 CNS = test system: SNB-19 CNS
786-0 renal = test system: 786-0 renal
NCI-H226 lung = test system: NCI-H226 lung
NCI-H460 lung = test system: NCI-H460 lung
ACHN renal = test system: ACHN renal
SF-295 CNS = test system: SF-295 CNS
PC-3 prostate = test system: PC-3 prostate
MDA-MB-231 breast = test system: MDA-MB-231 breast
MOLT-4 leukemia = test system: MOLT-4 leukemia
SK-MEL-28 melanoma = test system: SK-MEL-28 melanoma
T-47D breast = test system: T-47D breast
OVCAR-3 ovarian = test system: OVCAR-3 ovarian
UACC-257 melanoma = test system: UACC-257 melanoma
TK-10 renal = test system: TK-10 renal
UACC-62 melanoma = test system: UACC-62 melanoma
K-562 leukemia = test system: K-562 leukemia
HCT-116 colon = test system: HCT-116 colon
SNB-75 CNS = test system: SNB-75 CNS
RPMI-8226 leukemia = test system: RPMI-8226 leukemia
DU-145 prostate = test system: DU-145 prostate
U251 CNS = test system: U251 CNS
SK-OV-3 ovarian = test system: SK-OV-3 ovarian
SK-MEL-2 melanoma = test system: SK-MEL-2 melanoma
MDA-MB-435 = test system: MDA-MB-435
RXF 393 renal = test system: RXF 393 renal
HCC-2998 colon = test system: HCC-2998 colon
SK-MEL-5 melanoma = test system: SK-MEL-5 melanoma
OVCAR-4 ovarian = test system: OVCAR-4 ovarian
MCF7 breast = test system: MCF7 breast
M14 melanoma = test system: M14 melanoma
MDA-N = test system: MDA-N
CAKI-1 renal = test system: CAKI-1 renal
KM12 colon = test system: KM12 colon
A498 renal = test system: A498 renal
A549 NSCLC = test system: A549 NSCLC
SW-620 colon = test system: SW-620 colon
COLO 205 colon = test system: COLO 205 colon
HL-60(TB) leukemia = test system: HL-60(TB) leukemia

COC(=O)C1=C2SCc3ccc(cc3)CSC3=C(C(=O)OC)SC(=C(S2)S1)S3
TGI (SN12C renal): > 100 µM | TGI (UO-31 renal): > 100 µM | TGI (HOP-62 NSCLC): > 100 µM | TGI (SNB-19 CNS): > 100 µM | TGI (786-0 renal): > 100 µM | TGI (NCI-H226 lung): > 100 µM | TGI (NCI-H460 lung): > 100 µM | TGI (ACHN renal): > 100 µM | TGI (SF-295 CNS): > 100 µM | TGI (PC-3 prostate): > 100 µM | TGI (MDA-MB-231 breast): > 100 µM | TGI (MOLT-4 leukemia): > 100 µM | TGI (SK-MEL-28 melanoma): > 100 µM | TGI (T-47D breast): > 100 µM | TGI (OVCAR-3 ovarian): > 100 µM | TGI (UACC-257 melanoma): > 100 µM | TGI (TK-10 renal): > 100 µM | TGI (UACC-62 melanoma): > 100 µM | TGI (K-562 leukemia): > 100 µM | TGI (HCT-116 colon): > 100 µM | TGI (SNB-75 CNS): > 100 µM | TGI (RPMI-8226 leukemia): > 100 µM | TGI (DU-145 prostate): > 100 µM | TGI (U251 CNS): > 100 µM | TGI (SK-OV-3 ovarian): > 100 µM | TGI (SK-MEL-2 melanoma): > 100 µM | TGI (MDA-MB-435): > 100 µM | TGI (RXF 393 renal): > 100 µM | TGI (HCC-2998 colon): > 100 µM | TGI (SK-MEL-5 melanoma): > 100 µM | TGI (OVCAR-4 ovarian): > 100 µM | TGI (MCF7 breast): > 100 µM | TGI (M14 melanoma): > 100 µM | TGI (MDA-N): > 100 µM | TGI (CAKI-1 renal): > 100 µM | TGI (KM12 colon): > 100 µM | TGI (A498 renal): > 100 µM | TGI (A549 NSCLC): > 100 µM | TGI (SW-620 colon): > 100 µM | TGI (COLO 205 colon): > 100 µM | TGI (HL-60(TB) leukemia): 9.51 µM
